Source: ChEMBL document CHEMBL1123869, “N,N-dialkylated leucine enkephalins as potential delta opioid receptor antagonists” (1987)
Peptide text beside a SMILES is read from it. * marks the point of attachment. Tyr(Nα,Nα-Bn2) = O=C([C@H](Cc1ccc(O)cc1)N(Cc1ccccc1)Cc1ccccc1)*; Tyr(Nα,Nα-allyl2) = C=CCN(CC=C)[C@@H](Cc1ccc(O)cc1)C(=O)*; X4 = O=C([C@H](Cc1ccc(O)cc1)N(CCc1ccccc1)CCc1ccccc1)*; X5 = CCCCCCCCN(CCCCCCCC)[C@@H](Cc1ccc(O)cc1)C(=O)*; X3 = O=C([C@H](Cc1ccc(O)cc1)N(CC1CC1)CC1CC1)*; X1 = CCCCCN(CCCCC)[C@@H](Cc1ccc(O)cc1)C(=O)*; X2 = CCCN(CCC)[C@@H](Cc1ccc(O)cc1)C(=O)*

Tests used:
Cavia porcellus = species on record: Cavia porcellus; test: Agonistic activity was measured on the electrically stimulated longitudinal muscle of the guinea pig ileum (GPI) at 1 uM concentration; conditions: Muscle tissue
Mus musculus = species on record: Mus musculus; test: Agonistic activity was measured on the electrically stimulated longitudinal muscle of the mouse vas deferens (MVD) at 1 uM concentration; conditions: Muscle tissue

Row | Compound | inhibition at 1 µM (Cavia porcellus) | inhibition at 1 µM (Mus musculus)
1 | CCCCCN(CCCCC)[C@@H](Cc1ccc(O)cc1)C(=O)NCC(=O)NCC(=O)N[C@@H](Cc1ccccc1)C(=O)N[C@@H](CC(C)C)C(=O)O (X1-GGFL-OH) | 15.9% | 20.4%
2 | C=CCN(CC=C)[C@@H](Cc1ccc(O)cc1)C(=O)NCC(=O)NCC(=O)N[C@@H](Cc1ccccc1)C(=O)N[C@@H](CC(C)C)C(=O)O ({Tyr(Nα,Nα-allyl2)}-GGFL-OH) | -6.7% | 10%
3 | CC(C)C[C@H](NC(=O)[C@H](Cc1ccccc1)NC(=O)CNC(=O)CNC(=O)[C@H](Cc1ccc(O)cc1)N(Cc1ccccc1)Cc1ccccc1)C(=O)O ({Tyr(Nα,Nα-Bn2)}-GGFL-OH) | 1.9% | 11.4%
4 | CC(C)C[C@H](NC(=O)[C@H](Cc1ccccc1)NC(=O)CNC(=O)CNC(=O)[C@H](Cc1ccc(O)cc1)N(CC1CC1)CC1CC1)C(=O)O (X3-GGFL-OH) | 2.2% | 27.3%
5 | CCCN(CCC)[C@@H](Cc1ccc(O)cc1)C(=O)NCC(=O)NCC(=O)N[C@@H](Cc1ccccc1)C(=O)N[C@@H](CC(C)C)C(=O)O (X2-GGFL-OH) | -2.6% | 11.9%
6 | CCCCCCCCN(CCCCCCCC)[C@@H](Cc1ccc(O)cc1)C(=O)NCC(=O)NCC(=O)N[C@@H](Cc1ccccc1)C(=O)N[C@@H](CC(C)C)C(=O)O (X5-GGFL-OH) | 8.1% | 39.2%
7 | CC(C)C[C@H](NC(=O)[C@H](Cc1ccccc1)NC(=O)CNC(=O)CNC(=O)[C@H](Cc1ccc(O)cc1)N(CCc1ccccc1)CCc1ccccc1)C(=O)O (X4-GGFL-OH) | 14.7% | 60.5%
